| melting point [°C] | Structure (SMILES) |
| --- | --- |
| 226 to 228 | CCOC(=O)CC[C@H](NC(=O)c1ccc(N2CCN(c3c(N)nc(N)nc3CC)CC2)cc1)C(=O)OCC |
| 168 | Cc1cc(Nc2ccnc(Nc3ccc(S(=O)(=O)N(C)C4CCN(Cc5csnn5)CC4)cc3)n2)ccc1F |
| 92 | CS(=O)c1cc(-c2ccc(Oc3ccccc3)cc2)nn1C(N)=O (stereo not given) |
| 126 to 128 | O=[N+]([O-])c1ccc(OC23CC4CC(CC(C4)C2)C3)c2ccccc12 |
| 168 | CN1CC(O)c2cc(S(N)(=O)=O)sc2S1(=O)=O (single isomer, unassigned; (+)) |
| 123 to 126 | Cc1ccccc1NC(=O)c1ccc(-n2nc(C3CC3)cc2C2CC2)nc1 |
| 41 to 43 | CCCCCNC(=O)CCCO |
| 65 to 66 | CSc1ccc(CCl)cc1C(F)(F)F |
| 154 to 155 | CN(C)CCn1c2c(c3ccccc31)CCS(=O)(=O)CCC2 |
| 233 to 235 | CC1(C(=O)c2c[nH]c3ncc(-c4ccc(N5CCOCC5)cc4)nc23)CCCCC1 |
| 134 to 136 | COC(=O)c1ccc(OCCNC(=O)c2ccc(Br)cc2)cc1 |
| 167 to 169 | CCOC(=O)c1cn(-c2c(F)cc(F)c([N+](=O)[O-])c2F)c2c(Cl)c(F)c(F)cc2c1=O |
| 174 to 176 | CN1CCC(c2c[nH]c3ccc(OS(=O)(=O)c4ccc(I)cc4)cc23)CC1 |
| 169 to 170 | CCOC(=O)c1cc(NCc2ccccc2)c(Nc2cccc(C)c2)c(S(N)(=O)=O)c1 |
| > 230 | N#Cc1ccc(-n2c(=O)cc(C(F)(F)F)n(N)c2=O)cc1O |
| 59.3 to 59.8 | CCCCCCCCCCCCCCOc1c(CBr)cccc1CBr |
| 62 to 64 | COc1cc(Cl)c(Nc2nc(C)ccc2S(=O)(=O)c2ccc(OCc3ccccc3OC)cc2)cc1F |
| 94 to 95 | COC(=O)c1ccc(Cn2cnc3ccccc32)cc1 |
| 228 | N#Cc1cc(=O)n(CCc2ccccc2)s1 |
| 124 | Cc1ccc(C2(O)CCC(=O)N2C)cc1S(N)(=O)=O (stereo not given) |
| 215 | O=C1CN(C(=O)COc2cc(-c3ccccc3)nc3ccccc23)CCN1 |
| 60 to 63 | CCCCSC(=S)N1Cc2[nH]c3ccccc3c2CC1CO (stereo not given) |
| 182 to 185 | CCOC(=O)C(C#N)=C1CCN(c2ccc(N3C[C@H](CNC(C)=S)OC3=O)cc2F)CC1 |
| 145 to 149 | O=C1C(=O)N(CCCN2CCN(C(c3ccccc3)(c3ccccc3)c3ccccc3)CC2)c2ccccc21 |

| melting point [°C] | Structure (SMILES) |
| --- | --- |
| 165 to 167 | CN(C)C=CC(=O)c1cccc(NC=O)c1 |
| 271 | CC(C)(C#N)c1ccc(-n2c(-c3cc(-c4cnc5ccccc5c4)ccn3)c[nH]c2=O)cc1 |
| 47.5 to 49 | O=C(Cl)Cc1ccc([N+](=O)[O-])cc1 |
| > 300 | CC(C)n1nc(-c2c(-c3ccccc3)nc(N)nc2N2CCCC2)ccc1=O |
| 214 | CC(=O)c1ccc(-c2cc(-c3c(-c4ccccn4)nc4ccccn34)ccn2)cc1 |
| 144 to 145 | COc1ccc(C(C)(O)c2cccc(OCc3nc(-c4ccccc4)oc3C)c2)c(OCCOC(C)=O)c1 (stereo not given) |
| 107 to 110 | N#CCC(=O)c1ccccc1C1(c2ccccc2)OCC(CCl)O1 (stereo not given) |
| > 250 | CNC1Oc2cc(Cl)cc(-c3ccccc3C)c2O1 (stereo not given) |
| 59 to 60 | CN(C=O)CC1(N(C)C)CCCCC1 |
| 112 | COc1ccc(S(=O)(=O)c2ccccn2)cc1 |
| 137 to 139 | CCOCOC1(C(=O)COC(C)=O)C(C)CC2C3CC(C)C4=CC(=O)C=CC4(C)C3C(O)CC21C (stereo not given) |
| 76 to 77 | CC(=O)OCCOc1ncc(Cl)c(N)c1Cl |
| 176 to 178 | O=C1CNc2cc(F)ccc2N1 |
| 180 | O=C1c2cc(O)cc(O)c2C(=O)C1c1ccc(O)cc1 (stereo not given) |
| 173 | Nc1c(F)cc(Cl)c2nc(Cl)sc12 |
| 178 to 179 | N#Cc1cccc(-c2ccc(=O)n(Cc3cccc(-c4ncc(Br)cn4)c3)n2)c1 |
| 223 to 224 | CC(C(=O)N1c2ccccc2C(=O)Nc2cccnc21)N1CCN(C)CC1 (stereo not given) |
| 117 to 125 | Fc1ccc(Nc2nc(NCc3ccc(Cl)nc3)nc(NN=Cc3ccc(OC(F)(F)F)cc3)n2)cc1C(F)(F)F |
| 49 to 50 | Clc1ccc(-c2coc(CCCI)n2)cc1 |
| 60 | O=C([C@@H](Cc1ccc(Cl)cc1)NC1CCCCC1)N1CCC(Cn2cncn2)(C2CCCCC2)CC1 |
| 183 to 185 | COc1ccc(Cc2nc3n(-c4c(Cl)cc(Cl)cc4Cl)[nH]c(C(C)C)c-3c(=O)n2)cc1 |
| 191 to 192 | O=C(O)C1c2ccccc2COc2ccc(I)cc21 (stereo not given) |
| 58 to 61 | Nc1ccccc1C(=O)CCCO |
| 168 to 170 | Cc1ccc(-c2nc(-c3ccc(C)cc3C)nc(-c3cc(C(C)(C)c4ccccc4)c(O)cc3O)n2)c(C)c1 |

| melting point [°C] | Structure (SMILES) |
| --- | --- |
| 193 to 196 | O=c1[nH]c2ccsc2c(=O)n1CCN1CCN(c2ccccc2Cl)CC1 |
| 211 to 218 | O=S1(=O)N=CN(CCF)c2ccc(Cl)cc21 |
| 99 to 100 | CCOC(=O)c1c(Cn2cnc3ccccc32)nc2cc(OC)c(OC)cc2c1-c1ccc(OC)c(OC)c1 |
| 178 to 180 | Nc1cc2c(c(C(=O)O)c1)CCCC2 |
| 262 to 268 | CSC1=C(Cl)CC2C3CCC4=CC(=O)C=CC4(C)C3(F)C(O)CC12C (stereo not given) |
| 141 to 142 | CC(C)(C)C1=C(c2ccc(C(=O)N3CCOCC3)c(O)c2)OCC1(C)C |
| 168 to 170 | C=Cc1ccc2sc(S(N)(=O)=O)cc2c1 |
| 95 to 96.5 | CCOC(=O)c1cc2c(C(F)(F)F)cc(CP(=O)(OCC)OCC)cc2n1C |
| 89 to 90 | C#Cc1cnn2c(C)cc(-c3ccc(C(F)(F)F)cc3)nc12 |
| 83 to 85 | CCCCS(=O)(=O)NCC1CCN(C(=O)OCc2ccccc2)CC1 |
| 99 to 101 | CC(C)(C)C(F)(F)c1ccc(C[C@@H](NC(=O)c2cccc3c(Cl)cccc23)[C@@H](O)c2cccc(Cl)c2)cc1 (racemic) |
| 175 to 176 | CNC(=O)c1ccnc(NC(=O)N2CCC3(CCc4cc(F)ccc4O3)CC2)c1 |
| 44.5 to 47.5 | Cn1cccc1CN1CCCC1=O |
| 89.5 to 90.5 | CCCc1c2c(cc3c(=O)cc(C(=O)OCC)oc13)CC(C(=O)OCC)CC2 (stereo not given) |
| 153 to 155 | CC1c2ccccc2-c2[nH]c3ccccc3c21 (stereo not given) |
| 82 to 84 | O=C1c2ccccc2Cc2ccccc2C1Br (stereo not given) |
| 150 to 151 | CCS(=O)(=O)CCNC(=O)C1=C(C(=O)Nc2ccc(Cl)cc2F)CCCC1 |
| 146 to 147 | CSc1ccc(COc2cccc(C(=O)Nc3ccc(C#N)cn3)c2)cc1 |
| 141 to 143 | Cc1cn(-c2ccc(NC(=O)c3ccc(Cl)c(C#Cc4cnc(NC5CC5)nc4)c3)cc2C(F)(F)F)cn1 |
| 137 to 138 | Cc1oc(-c2ccccc2)nc1COc1cccc(COc2cc(CCC(=O)O)n(-c3ccccc3)n2)c1 |
| 192 to 195 | CN(c1ccc(C2CCCCC2)cc1)c1nc(=O)c2cccnc2s1 |
| 108 to 110 | COCc1ccc(N=C2NCCN2)c(Cl)c1 |
| 98 to 100 | CCCC(Oc1cccc(-c2noc(C)n2)c1)C(=O)O (stereo not given) |
| 111 to 112 | CC(C)(C)OC(=O)N1CC(CCl)c2ccc([N+](=O)[O-])cc21 (stereo not given) |

| melting point [°C] | Structure (SMILES) |
| --- | --- |
| 177 | COC(=O)Nc1cc(C(C)(C)C)[nH]n1 |
| 60 to 63 | O=C1CC(NCc2ccccc2)C(=O)N1Cc1ccccc1 (stereo not given) |
| 128 to 131 | CNC(=O)C(=NO)c1ccccc1CO |
| 90 to 92 | CN(C)c1ccc(C(=O)C(F)c2cccc(Cl)c2)cc1 (stereo not given) |
| 67 to 69.5 | CCCCCCCCCCCCCc1cc(C(=O)OCCBr)c[nH]1 |
| 75 to 77 | Cc1noc(-c2ccc(Br)c(C)c2)n1 |
| 145 | CC#CCOc1ccc(C(=O)N(C)C[C@@H](C(=O)NO)N2CCN(S(C)(=O)=O)CC2)cc1 |
| 275 to 277 | O=c1[nH]c2ncc(-c3ccc(CO)cc3)nc2n1CC1CCCCC1 |
| 233 to 237 | COc1cc2c(cc1OC)C(c1sc(N)nc1C)=NCC2 |
| 157 to 158 | Cc1ccc2nc(-c3ccccc3C#N)n(C)c(=O)c2c1 |
| 218 to 219 | CC(C)(C)c1ccc(C[C@H]2NC(=O)O[C@H]2c2ccc(F)cc2)cc1 (racemic) |
| 132 to 133 | Cc1cccc(NC(=O)NC2N=C(C(C)C)c3cccc(C)c3N(CC(=O)N3CCCCCCC3)C2=O)c1 (stereo not given) |
| 128 to 131 | Cn1c(C(F)(F)F)cc(=O)n(-c2cc(OCCNC=O)c(Cl)cc2F)c1=O |
| 317 to 321 | Nc1nc(N)nc(C2CCC(c3nc(N)nc(N)n3)CC2)n1 (stereo not given) |
| 217 | OC1(C2CCC(c3c(F)cccc3F)=N2)C=CC(c2ccccc2)=CC1 (stereo not given) |
| 139 to 141 | CCOc1c(C(C)=O)cnc2c1cnn2Cc1ccco1 |
| 262 to 265 | COc1ccc(-c2ccnc3c(C(N)=O)ncn23)cc1OC |
| 153 to 155 | COc1ccc2c(c1)c(CC(=O)ON(C(N)=O)C(C)c1cc3ccccc3s1)c(C)n2C(=O)c1ccc(Cl)cc1 (stereo not given) |
| 108 to 110 | CCOC(=O)c1c2ccc(Cl)cc2c(-c2ccccc2)n1CCCN(C)c1ccccc1 |
| 204 | CC1=C(CNC(=O)NCc2ccccc2)c2cc(F)ccc2/C1=C\c1ccc(S(C)(=O)=O)cc1 |
| 113 to 114 | COc1ccc(CCn2cc(C(=O)NCCN(C)C)c3nc4c(C)cccc4cc3c2=O)cc1OC |
| 179 | Cn1ncnc1COc1nc2c(-c3ccccc3)nncn2c1-c1ccccc1 |

| Structure (SMILES) | melting point [°C] |
| --- | --- |
| CCOC(=O)CNC(=O)c1cc2c(s1)-n1c(C)nnc1CN=C2c1ccccc1Cl | 251 to 252 |
| COc1ccc(C2CNCc3c(OC)cccc32)cc1OC (stereo not given) | 106 to 112 |
| COc1ccc(CC(C)N)cc1S(N)(=O)=O (stereo not given) | 180 |
| CN1Cc2c(C#Cc3ccc(Cl)cc3)ncn2-c2ccc(F)cc2C1=O | 221 to 222 |
| CN(C)C(=O)Oc1c(N2CCCC2)c(=O)n(-c2ccccc2)c2ncccc12 | 218 to 220 |
| O=C1CN=C(c2ccccc2Cl)c2cc(I)sc2N1 | 229 to 231 |

From a melting point compilation (Tetko et al.; mined from patent text by program, amines drawn as free bases though some values may be those of a salt)
